This is an account of results in PubChem BioAssay (NCI).

Some test systems named below: ACHN renal; DLD-1 colon; HOP-18 NSCLC; HOP-62 NSCLC; KM20L2 colon; LOX IMVI melanoma; SK-MEL-5 melanoma; MDA-MB-435; NCI/ADR-RES ovarian; T-47D breast.
Assay in all cases: DTP human tumour cell line panel, 48 h

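Step 1: Grow cells in 96-well plates. Step 2: Expose to compound for 48 hours at 5 concentrations. Step 3: Interpolate endpoints linearly; if unreached, use highest concentration. GI50: concentration for 50% inhibition of growth. Definition used: TGI = concentration required for complete inhibition of growth.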 Some results are limits rather than exact numbers.

As a reminder, the TGI is the concentration giving total growth inhibition. On to `COc1ccc2c(c1OCC(=O)O)C(=O)C(CCC(=O)O)CC2` (stereo unspecified), for which the TGI in the assay on ACHN renal, in the assay on DLD-1 colon, in the assay with HOP-18 NSCLC, with HOP-62 NSCLC, in the assay on KM20L2 colon and in the assay on LOX IMVI melanoma was > 100 µM in each case. For the same compound, the concentration for total growth inhibition (TGI) in the assay with SK-MEL-5 melanoma is > 100 µM.

Consider `CCOC(=O)c1nc2c(OC)nn(O)cc-2c1[N+](=O)[O-]`, for which the TGI in the assay on ACHN renal is 31 µM; in the assay with DLD-1 colon it was 33.7 µM; with HOP-18 NSCLC, 34.9 µM; in the assay on HOP-62 NSCLC it was > 100 µM; in the assay on KM20L2 colon it was 30.1 µM; with LOX IMVI melanoma, 30 µM.

With `Cc1ccccc1C(=O)c1cc(O)ccc1O`, the TGI with ACHN renal, with DLD-1 colon, with HOP-18 NSCLC, in the assay on HOP-62 NSCLC, in the assay with KM20L2 colon and in the assay on SK-MEL-5 melanoma was > 100 µM throughout.

As to `C#CC1/C(=C\C(=O)OC)CCCC1O` (stereo unspecified), the TGI in the assay on ACHN renal, in the assay with DLD-1 colon, in the assay on HOP-18 NSCLC, in the assay on HOP-62 NSCLC, with KM20L2 colon and with SK-MEL-5 melanoma was > 100 µM each time.

Turning to `O=C(Nc1cccc(Cl)c1)C(=O)C(C(=O)c1ccc2ccccc2c1)C1OC(=O)c2ccccc21` (stereo unspecified), the TGI with ACHN renal was 82.7 µM; with DLD-1 colon, 32.7 µM; in the assay with HOP-18 NSCLC, 28.2 µM; in the assay on HOP-62 NSCLC, 37.3 µM; in the assay on KM20L2 colon, > 100 µM; in the assay with LOX IMVI melanoma, 44.5 µM. For the same compound, the TGI with SK-MEL-5 melanoma stood at 30.3 µM.

As to `Cc1ccc2nc(/C(=C/c3ccc(/C=C(\NC(=O)c4ccccc4)c4nc5ccc(C)cc5[nH]4)c(C)c3)NC(=O)c3ccccc3)[nH]c2c1`, the TGI with ACHN renal is > 100 µM; in the assay on DLD-1 colon, > 100 µM; in the assay on HOP-62 NSCLC, > 100 µM; with KM20L2 colon it was 45.3 µM; in the assay on SK-MEL-5 melanoma, 33.5 µM.

For the compound `CN(C)C(=S)/N=c1\sn(C)/c(=N\C(=S)N(C)C)n1C`, the TGI in the assay on ACHN renal, in the assay with DLD-1 colon, in the assay on HOP-18 NSCLC, in the assay on HOP-62 NSCLC, with KM20L2 colon and with LOX IMVI melanoma was > 100 µM throughout. Also, the TGI in the assay on SK-MEL-5 melanoma was > 100 µM.

A word on the GI50: it is the concentration at which growth is held to half of that of the control. Consider `CN1CCN(c2ccc(Nc3cc(-c4cccc(-n5ccc6cc(C7CC7)cc(F)c6c5=O)c4CO)cn(C)c3=O)nc2)CC1`, for which the GI50 in the assay with ACHN renal is 1.84 µM; in the assay with HOP-62 NSCLC, 3.97 µM; in the assay with LOX IMVI melanoma, 3.4 µM; with MDA-MB-435, 3.28 µM; in the assay on NCI/ADR-RES ovarian, 8.03 µM; in the assay on SK-MEL-5 melanoma, 11.9 µM. Moreover, in the assay with T-47D breast, the GI50 was 3.04 µM. For the same compound, the TGI with ACHN renal amounted to 3.76 µM; in the assay on HOP-62 NSCLC, 20.7 µM; in the assay with LOX IMVI melanoma it was 12.7 µM; in the assay on MDA-MB-435, 14 µM; in the assay with NCI/ADR-RES ovarian it was 33.4 µM; in the assay on SK-MEL-5 melanoma, 31.1 µM. The same compound returned a TGI in the assay on T-47D breast of 15.9 µM.

Turning to `COc1cc(OC)c2c(=O)cc(-c3ccc(OC)c(OC)c3OC)oc2c1`, the TGI in the assay on ACHN renal, with DLD-1 colon, in the assay on HOP-62 NSCLC, in the assay with KM20L2 colon and in the assay on LOX IMVI melanoma was > 100 µM throughout.

On to `C/C(CC(=O)Nc1ccc(C)c(C)c1)=N\N(c1ccccc1)c1ccccc1`, for which the TGI in the assay on ACHN renal is > 100 µM; with DLD-1 colon, > 100 µM; with HOP-18 NSCLC, > 100 µM; with HOP-62 NSCLC, > 100 µM; in the assay with KM20L2 colon it was 26 µM; in the assay on LOX IMVI melanoma, > 100 µM. Further, the TGI in the assay with SK-MEL-5 melanoma was > 100 µM.

As for `CC(NCCC(c1ccccc1)c1ccccc1)c1ccccc1` (stereo unspecified), the GI50 in the assay on ACHN renal is 3.32 µM; in the assay with HOP-62 NSCLC, 1.36 µM; in the assay with LOX IMVI melanoma, 1.59 µM; with MDA-MB-435, 2.54 µM; in the assay on NCI/ADR-RES ovarian, 2.77 µM; in the assay on SK-MEL-5 melanoma, 1.6 µM. In the assay with T-47D breast, the GI50 is 1.59 µM. In addition, the TGI with ACHN renal was found to be 12 µM; in the assay on HOP-62 NSCLC, 3.31 µM; in the assay with LOX IMVI melanoma it was 2.93 µM; in the assay with MDA-MB-435 it was 7.76 µM; with NCI/ADR-RES ovarian, 7.68 µM; in the assay with SK-MEL-5 melanoma, 2.95 µM. The TGI in the assay with T-47D breast turned out to be 3.29 µM.

In the case of `N=c1c2c(-c3ccccc3)c(-c3ccccc3)n(Cc3ccccc3)c2ncn1C1CCC(O)CC1` (stereo unspecified), the GI50 in the assay with ACHN renal is 0.0653 µM; in the assay on HOP-62 NSCLC, 0.261 µM; with LOX IMVI melanoma, 0.14 µM; in the assay on MDA-MB-435, 0.346 µM; in the assay on NCI/ADR-RES ovarian, 0.717 µM; in the assay on SK-MEL-5 melanoma, 0.511 µM. Also, the GI50 in the assay on T-47D breast was 0.911 µM. Also, the TGI in the assay with ACHN renal amounted to 12.8 µM; in the assay with HOP-62 NSCLC, 14.8 µM; in the assay on LOX IMVI melanoma, 1.69 µM; in the assay on MDA-MB-435, 4.89 µM; with NCI/ADR-RES ovarian it was 18.4 µM; in the assay with SK-MEL-5 melanoma it was 1.85 µM. The same compound displayed a TGI in the assay with T-47D breast of 18.3 µM.

Take `O=C(/C=C/c1ccc[nH]1)c1ccc(-n2ccc(C(F)(F)F)n2)cc1`: the GI50 in the assay on ACHN renal, with HOP-62 NSCLC, in the assay on LOX IMVI melanoma, in the assay on MDA-MB-435, in the assay on NCI/ADR-RES ovarian and in the assay with SK-MEL-5 melanoma was > 100 µM in each case. Moreover, the GI50 in the assay with T-47D breast is > 40.9 µM. Besides, the TGI in the assay with ACHN renal, in the assay with HOP-62 NSCLC, in the assay on LOX IMVI melanoma, in the assay on MDA-MB-435, in the assay with NCI/ADR-RES ovarian and in the assay on SK-MEL-5 melanoma was > 100 µM in each case. The TGI with T-47D breast was > 100 µM.

As for `CC1(C)OC2C(CO[Si](C)(C)C(C)(C)C)OC(n3c(I)c(C#C[Si](C)(C)C)c(=O)[nH]c3=O)C2O1` (stereo unspecified), the GI50 with ACHN renal was 12.9 µM; in the assay on HOP-62 NSCLC it was > 100 µM; with LOX IMVI melanoma it was 3.01 µM; in the assay on MDA-MB-435 it was 15.7 µM; in the assay with NCI/ADR-RES ovarian it was 20.4 µM; in the assay on SK-MEL-5 melanoma, 13.4 µM. Besides, in the assay on T-47D breast, the GI50 was 10.5 µM. In addition, the TGI with ACHN renal was 26.4 µM; in the assay on HOP-62 NSCLC, > 100 µM; with LOX IMVI melanoma, 11.1 µM; with MDA-MB-435, 44.3 µM; in the assay on NCI/ADR-RES ovarian, 58.3 µM; with SK-MEL-5 melanoma, 26.2 µM. Further, the TGI with T-47D breast was determined as 26.4 µM.
